Measurements from publication PMC12040169 (PLOS Biology, 2025).

Experiment: in vitro
Details: human, hela cells, % viability

Structure (SMILES) | viability at 28.5 h, 10 µM (bulk resorufin, single well) [%] | viability at 28.5 h, 10 µM [%]
c1csc(-c2ccc3c(c2)COC2(CCNCC2)O3)c1 [CBK060871] | 90.3 | –
O=C(Nc1ccsc1C(=O)O)c1ccccc1Cl [CBK152440] | – | 98.4
CCN(CC)C(=O)c1ccc2[nH]ccc2c1 [CBK149072] | – | 97.1
C/C(=N\NC(=O)c1nc(-c2ccccc2)cc(-c2ccccc2)n1)c1ccc(F)cc1 [CBK262826] | – | 110
Cc1cc(S)n2nc(C)c(-c3ccccc3)c2n1 [CBK288423] | – | 99
CCOc1ccc(Cl)cc1CCNC(=O)NC(C)c1nnnn1C (centres unmarked) [CBK305923] | – | 89.2
CC1Cc2cc(C(O)CN3CCCCC3)ccc2N1C(=O)C1CC1 (centres unmarked) [CBK283144] | – | 97.4
COc1ccc(OC)c(NC(=O)CSc2nnc(-c3ccncc3)n2C)c1 [CBK266623] | – | 103
Cc1ccc(/N=N/c2c(O)c(C(=O)Nc3ccc4c(c3)c(=O)[nH]c3ccccc34)cc3ccccc23)c(Cl)c1 [CBK262306] | – | 92.7
CN1CCN(C)C(CNC(=O)c2ccc(-c3ccccc3CO)cc2)C1 (centres unmarked) [CBK307475] | – | 84.2
CC(C)(C)OC(=O)N1CCC(C(=O)NC[C@H](CC(=O)O)c2ccc(Cl)cc2)CC1 [CBK286691] | – | 98
Cc1cc(O)n2nc(CC(=O)NCc3nnc4n3CCCCC4)nc2n1 [CBK306989] | – | 103
O=C(Cc1c[nH]c(=O)[nH]c1=O)N1CCCCC1c1nc2cc(F)ccc2[nH]1 (centres unmarked) [CBK291108] | – | 104
O=[N+]([O-])c1ccc(N(CCO)CCO)c2nonc12 [CBK261447] | – | 98.7
CCCn1nc(C)c(-c2cncn2CC(C)N2CCC(C)CC2)c1C (centres unmarked) [CBK281791] | – | 85.2
Cc1ccn(-c2ccc(N3CCNCC3)nn2)n1 [CBK304680] | – | 97.4
Cc1cc(N2CCCC2)c(F)cc1CN1CCC(O)C(C)C1 (centres unmarked) [CBK282963] | – | 91.6
CCOC(=O)c1cc2c3ccccc3n(CC)c2nc1N [CBK100822] | – | 94
CC(C)(C)c1cc(-n2c(-c3cccnc3)nc3ccccc32)cc(C(C)(C)C)c1O [CBK262907] | – | 103
O=C(NCCCn1ccnc1)c1cc(-c2ccc(Br)cc2)nc2ccccc12 [CBK262645] | – | 84.8
N#CCCN(CCN1CCCC1)S(=O)(=O)c1cccc2nsnc12 [CBK261141] | – | 99.3
Cc1sc2nc(C)n(C3CCN(C(=O)C(C)C)CC3)c(=O)c2c1C [CBK282414] | – | 88.7
COc1ccc(C(C)NC(=O)C2CCCCC2C(=O)O)cc1OC (centres unmarked) [CBK270309] | – | 91.1

Structure (SMILES) | viability at 28.5 h, 10 µM (bulk resorufin, single well) [%] | viability at 28.5 h, 10 µM [%]
CN(C(=O)c1c[nH]nc1-c1ccc(CNC(=O)c2cccc(Cl)c2)cc1)c1ccccc1 [CBK285597] | – | 79.9
CCOC(=O)C1CCN(S(=O)(=O)c2ccc(C(C)(C)C)cc2)CC1 [CBK051240] | – | 83.5
CC(C)(C)NC(=O)CN1CCC(c2ccc(F)cc2)CC1 [CBK283629] | – | 90.1
Nc1ncnc2c1c(I)cn2[C@@H]1O[C@H](CO)[C@H](O)C1O (some centres unmarked) [CBK201321] | – | 16.5
CC(Oc1ccccc1)C(=O)Nc1cccc(C#N)c1 (centres unmarked) [CBK264062] | – | 91
Cc1ccc(-c2cc(C(=O)N(C)Cc3cccn3C)[nH]n2)o1 [CBK283324] | – | 100
CSc1nc(C#N)c(N)c(SC2C=CCCC2)n1 (centres unmarked) [CBK021817] | – | 89.4
O=S(=O)(c1ccc(C(F)(F)F)cc1)N1CCC2(CC1)OCCO2 [CBK044520] | – | 91.1
O=C1NCCCC12CCN(Cc1cccc3cccnc13)CC2 [CBK284826] | – | 92.3
Cc1nc(C2CCN(C(=O)c3ccnn3C)CC2)c2sccn12 [CBK285203] | – | 90.3
COc1ccc([C@@]23CCCN(C(=O)Nc4ccc(SC(F)(F)F)cc4)C[C@@H]2N(C)CC3)cc1OC [CBK056681T] | – | 92.2
O=c1n(-c2ccc(OC(F)(F)F)cc2)ccn1S(=O)(=O)c1ccccc1 [CBK106655] | – | 95.1
N#C/C(=C/c1ccc(OCc2ccc(C(=O)O)cc2)cc1)C(=O)Nc1ccc(Cl)cc1 [CBK263187] | – | 98.2
O=C1NC2(CCc3ccccc31)CCN(C(=O)c1ccccn1)C2 (centres unmarked) [CBK283337] | – | 96
CC(=O)N1CCc2sccc2C1c1ccc(NCc2ccc(F)c(F)c2)cc1 (centres unmarked) [CBK286452] | – | 101
O=C(c1cccs1)N1C[C@@H]2C[C@H](C1)c1c(-c3cncnc3)ccc(=O)n1C2 [CBK289194] | – | 90.7
O[C@H]1CCC[C@@H]1NCc1ccc(Cl)c(Cl)c1 [CBK005217] | – | 87
CC[C@H](Cn1ncc2ccccc2c1=O)NC(=O)CC(C)C [CBK284305] | – | 89.1
COc1ccc(S(=O)(=O)N2CCN(C)CC2)cn1 [CBK269511] | – | 85.9
Cc1cccc(OCCn2c(SCCC(=O)O)nc3ccccc32)c1 [CBK264682] | – | 93.5
Cn1c(Sc2ccc(C(=O)O)cc2[N+](=O)[O-])nnc1-c1ccccc1 [CBK265047] | – | 103
O=C(O)CC(C(=O)N1CCOCC1)N1CCCCC1 (centres unmarked) [CBK287074] | – | 98.7
Cc1ccccc1-c1ccccc1CC1(C(N)=O)CCN(C(=O)CC2CCCCC2)CC1 [CBK285723] | – | 103

Structure (SMILES) | viability at 28.5 h, 10 µM (bulk resorufin, single well) [%] | viability at 28.5 h, 10 µM [%]
CN1CCN(c2nccnc2-c2ccoc2)CC1 [CBK088834] | – | 98.6
CCCc1ccc(S(=O)(=O)Nc2ccc(C(=O)OC)cc2)cc1 [CBK028682] | – | 99.5
O=C(O)CNC(=O)/C(=C\c1ccco1)NC(=O)c1ccccc1Cl [CBK263967] | – | 84.8
O=C(c1cnc2ccccc2n1)N1CCN(CCc2ccccc2)CC1 [CBK200214] | – | 91
O=C(CCC(=O)c1ccc2c(c1)Cc1ccccc1-2)Nc1ccc(C(=O)O)cc1 [CBK268673] | – | 110
Cc1ccc(C(=O)O)cc1NC(=O)c1ncn(-c2ccccc2)n1 [CBK269181] | – | 114
Cc1ccc(OCCOc2cccc(/C=N/n3cnnc3)c2)cc1 [CBK263028] | – | 111
CCn1nccc1N1CCCC(NC(=O)CCc2ccccc2Cl)C1=O (centres unmarked) [CBK305455] | – | 113
Cc1nc2c(c(=O)n1C)CN(Cc1cc(=O)n3cccc(O)c3n1)C2 [CBK306991] | – | 78.8
CN1CC(C(=O)N2CCC(c3cc4ccccc4cn3)CC2)CC1=O (centres unmarked) [CBK284870] | – | 96.8
O=C(O)c1sccc1S(=O)(=O)Nc1ccc(Cc2nc3ccccc3s2)cc1 [CBK295286] | – | 92.8
CC(C)(C)S(=O)(=O)CC(N)=S [CBK021304] | – | 91.1
O=C1NC2(Nc3ccccc31)C(=O)N(Cc1cccc3ccccc13)c1ccccc12 (centres unmarked) [CBK264954] | – | 108
CCC1=NN2C(=N)/C(=C/c3ccc(OC)cc3)C(=O)N=C2S1 [CBK101905] | – | 95.6
NCCCNCCOc1ccc(Cl)c(Cl)c1 [CBK268631C] | – | 111
C=CCc1cc(C)cc(C)c1OCCN1CCN(C)CC1 [CBK269672C] | – | 101
O=C(CCCc1nc(-c2ccccc2Cl)no1)Nc1cccnc1 [CBK269122] | – | 91.6
CCN(CC)S(=O)(=O)c1ccc(C)c(NS(=O)(=O)c2cc(C(=O)O)n(C)c2)c1 [CBK297782] | – | 99.5
Cc1ccc(-c2csc(NC(=O)CS(=O)(=O)c3ccccc3)n2)cc1 [CBK287707] | – | 89.2
O=C(O)Cn1nnc(-c2ccncc2)n1 [CBK269884] | – | 86.6
CC(O)c1cc2c(cc1NC(=O)c1cnn3c1NC(c1ccco1)CC3C(F)(F)F)OCO2 (centres unmarked) [CBK268850] | – | 83.3
O=C(O)C(Cc1ccccc1)C(C(=O)O)c1ccccc1 (centres unmarked) [CBK286578] | – | 94.3
COc1ccc(-n2nc3cc(C)c(NC(=S)NC(=O)/C=C/c4ccco4)cc3n2)cc1 [CBK264359] | – | 109

Structure (SMILES) | viability at 28.5 h, 10 µM (bulk resorufin, single well) [%] | viability at 28.5 h, 10 µM [%]
C=CCn1c(N2CCC(C(=O)NC3CC3)CC2)nc2ccccc21 [CBK283924] | – | 86.4
Cc1cc(C)cc(N(CCC#N)C(=O)CSc2nnc[nH]2)c1 [CBK296955] | – | 101
CCCC/C=C/c1cn2ccnc2c(N2CCN(c3ccccn3)CC2)n1 [CBK066224] | – | 94
O=C(Cc1ccccc1F)N1CCCC(c2cnccn2)C1 (centres unmarked) [CBK284601] | – | 96.8
CN(C)CCN(C)c1cncc(-c2cccc3ccccc23)n1 [CBK065709] | – | 106
N=c1sc(Cc2cc(Cl)ccc2Cl)cn1CC(=O)c1ccccc1 [CBK263584B] | – | 89.6
O=C(c1cccc([N+](=O)[O-])c1)N1CCN(S(=O)(=O)N2CCOCC2)CC1 [CBK267469] | – | 100
O=C(CN1CCN(c2ccc([N+](=O)[O-])cn2)CC1)Nc1ccc2c(c1)OCO2 [CBK074679] | – | 115
Cc1ccc2[nH]c3c(c2c1)CCOC31CCN(Cc2ccccc2-c2ccccc2)CC1 [CBK039915] | – | 89.1
CN1CCC(C#N)(c2ccccc2F)CC1 [CBK003511] | 99.3 | –
O=C(O)c1cc2ncc(-c3n[nH]cc3[N+](=O)[O-])cn2n1 [CBK269072] | – | 100
O=C(Nc1ccc(NC(=O)c2cc3ccccc3o2)cc1)c1ccc(-c2ccccc2)cc1 [CBK268887] | – | 107
O=C(Nc1nc2c(F)cc(F)cc2s1)c1ccc(F)cc1 [CBK287617] | – | 101
O=C(CCc1cn2ccccc2n1)NCc1cc2n(n1)CCCNC2 [CBK307157] | – | 88.8
CS(=O)(=O)c1ccc(CNC(=O)C2(c3ccccc3)CCCC2)cc1 [CBK161524] | – | 96.3
O=C1c2ccc3c4c(ccc(c24)C(=O)N1c1ccncc1)C(=O)N(c1ccncc1)C3=O [CBK261390] | – | 95.4
COc1ccccc1CCCN1CCC(C(=O)NC(=O)Nc2ccccc2)CC1 [CBK034865] | – | 89.7
N#C/C(=C\c1ccc(-c2ccc(C(=O)O)cc2)o1)C(=O)NCc1ccco1 [CBK263322] | – | 101
O=C(Cc1ccsc1)N1CCN(c2ncccn2)CC1 [CBK144525] | – | 105
O=C(Cc1ccc(F)cc1F)N1CCC(Sc2ccc(-c3ccccc3)cc2)CC1 [CBK131950] | – | 105
